From US20110305673A1, “COMPOSITIONS AND METHODS FOR TISSUE REPAIR” (The University of Vermont and State Agriculture College, priority 2008, published 2011)

How the values were obtained:
cardiac progenitor cells [1] = test: Signal transduction inhibitor study on CPC number (48 hrs); assay type: cell-based, rat; details: for cell number ratio to control cell number: CPCs in MSC CdM; for cell number ratio to control cell number / effect on number/growth of CPCs in MSC conditioned media: 48 hrs; for effect on number/growth of CPCs in MSC conditioned media: inhibitor 10 μM
Procedure: Serum-free conditioned media was prepared as described previously (Kiel et al., Cell 2005; 121:1109-1121). cardiac progenitor cells and cardiac fibroblasts were plated at 500 cells/cm^2 and cultured in their growth medium. Three days after plating the medium was removed, the wells were washed twice with PBS, and the cells were then exposed to conditioned media or to fresh serum-free medium (α-MEM). For time course proliferation studies, the conditioned media and serum-free medium were changed every 2 days. […] All inhibitors were from Calbiochem (EMD Chemicals, San Diego, Calif.) and were dissolved in dimethyl sulfoxide (DMSO). Cardiac progenitor cells were cultured in conditioned media with the inhibitors or with the equivalent volume of DMSO as a control for 48 hrs. In the protection study, 3 days after plating, the medium was replaced with either the conditioned media or serum-free medium and the cells were exposed to hypoxia in a specialized incubator (1% oxygen) for 48 hours. The hypoxia incubator was a model that measured both CO2 and O2 (Thermo Electron, Form a Series II, model 3130). Oxygen was maintained at 1% by the injection of nitrogen gas and was monitored continuously. Cell numbers were quantified by the fluorescent labeling of nucleic acids (CyQuant dye; Molecular Probes, Carlsbad, Calif.) and with a microplate fluorescence reader (FLX800; Bio-Tek Instruments Inc., Winooski, Vt.) set to 480 nm excitation and 520 nm emission. Each experiment was repeated a minimum of 3 times.

cardiac progenitor cells [2] = test: CPC protection study under hypoxia (1% oxygen, 48 hours); assay type: cell-based, rat; details: inhibitor 10 μM
Procedure: Serum-free conditioned media was prepared as described previously (Kiel et al., Cell 2005; 121:1109-1121). cardiac progenitor cells and cardiac fibroblasts were plated at 500 cells/cm^2 and cultured in their growth medium. Three days after plating the medium was removed, the wells were washed twice with PBS, and the cells were then exposed to conditioned media or to fresh serum-free medium (α-MEM). For time course proliferation studies, the conditioned media and serum-free medium were changed every 2 days. In the signal transduction inhibitor studies the following pharmacological inhibitors, were used (10 micromolar): AG490, an inhibitor of Jak2/STAT3 pathway; Stattic, a specific inhibitor of STAT3 phosphorylation at Tyr^705; LY294002, inhibitor of phosphatidylinositol 3-kinase (PI3K)/Akt pathway; and PD98059, extracellular signal-regulated kinase (ERK) inhibitor. […] The hypoxia incubator was a model that measured both CO2 and O2 (Thermo Electron, Form a Series II, model 3130). Oxygen was maintained at 1% by the injection of nitrogen gas and was monitored continuously. Cell numbers were quantified by the fluorescent labeling of nucleic acids (CyQuant dye; Molecular Probes, Carlsbad, Calif.) and with a microplate fluorescence reader (FLX800; Bio-Tek Instruments Inc., Winooski, Vt.) set to 480 nm excitation and 520 nm emission. […]

CD133dMSCs = test: Puromycin kill curve; assay type: cell-based, human; details: after 3 days
Procedure: Based on observations that CD133dMSCs increased their secretion of SDF-1 in culture following exposure to hypoxia and mRNA expression in vivo after injection into stroke penumbra, the role of SDF-1 in mediating the benefits of CD133dMSC CdM was explored using lentiviral shRNA knockdown of SDF-1 with puromycin-selectable vectors. In preliminary studies, kill curves were performed with transduced CD133dMSCs incubated in puromycin-containing culture medium to remove cells that were not transduced by lentivirus. […] Following lentiviral transduction of expanded CD133dMSCs from a single donor with a scrambled shRNA vector, 2 different shRNAs vectors against SDF-1, or a control selectable GFP vector, ELISAs and FACS assays were performed to characterize the cells.

With N#C/C(=C/c1ccc(O)c(O)c1)C(=O)NCc1ccccc1 [AG490] the “cell number ratio to control cell number” value (cardiac progenitor cells [1]; 1 μM) was 96.3±0.9%, the “cell number ratio to control cell number” value (cardiac progenitor cells [1]; 5 μM) was 89.5±0.9% and the “effect on CPC numbers in growth medium” value (cardiac progenitor cells [1]; 10 μM, 48 hours) was “not AG490 significantly diminished”. For the same compound, the “effect on number of CPCs in conditioned media from fibroblasts” value (cardiac progenitor cells [1]; 10 μM, 48 hours) was “inhibitory effect”, the “effect on number of CPCs in conditioned media from p75MSCs” value (cardiac progenitor cells [1]; 10 μM, 48 hours) was “inhibitory effect” and the “effect on number of CPCs in serum-free medium” value (cardiac progenitor cells [1]; 10 μM, 48 hours) was “significantly reduced”. The “cell number ratio to control cell number” value (cardiac progenitor cells [1]; 10 μM) was 43.4±2.4% and the “effect on protective effects of conditioned media during hypoxia” value (cardiac progenitor cells [2]) was “inhibited the protective effects”.

For COc1cccc(-c2cc(=O)c3ccccc3o2)c1N [PD98059], the “effect on number/growth of CPCs in MSC conditioned media” value (cardiac progenitor cells [1]) was “did not block”.

With O=[N+]([O-])c1ccc2c(c1)S(=O)(=O)C=C2 [Stattic] the “effect on number/growth of CPCs in MSC conditioned media” value (cardiac progenitor cells [1]) was “completely blocked” and the “effect on protective effects of conditioned media during hypoxia” value (cardiac progenitor cells [2]) was “blocked the protective effects”.

In the case of COc1ccc(C[C@H](N)C(=O)N[C@H]2[C@@H](O)[C@H](n3cnc4c(N(C)C)ncnc43)O[C@@H]2CO)cc1 [puromycin], the “concentration sufficient to remove all untransduced CD133dMSCs” value (CD133dMSCs) is reported as 2 µg/mL.
